Experimental findings from article PMC6611794, “Development of a high-throughput strategy for discovery of potent analogues of antibiotic lysocin E” (Nature Communications, 2019) are described below.

The nature of assay [1]: On-bead menaquinone complexation assay (fluorescence of 2H). Particulars: single library bead (hit beads >1000 a.u.), average of three readings. The format is binding. As for the experimental part: Next, the feasibility of the on-bead complexation assay was assessed using bead-linked lysocin E 30 and MK-4 (2). Our initial assay based on the finding that 1 and 2 form a red precipitate upon complexation (Supplementary Fig. 2) was not robust, because the magnitude of the red color was not proportional to the amount of captured 2 (Fig. 2b, c). We therefore developed a fluorescence-based method for quantifying 2 by reducing its naphthoquinone moiety to fluorescent hydroquinone 2H. One bead of 30 was incubated with 2 in MeOH, washed by MeOH in a microplate well, and then the bead-bound 2 was eluted under more forcing hydrophobic conditions (n-BuOH at 50 °C). The eluate containing 2 was treated with NaBH4 in n-BuOH to produce 2H[46]. The fluorescence intensity of 2H was evaluated to determine the quantity of 2 bound to one bead of 30. The method was found with a small margin of error (1026 ± 64 a.u.), indicating its high accuracy (Fig. 2a and Supplementary Fig. 3). Importantly, the structure of 1 remained intact during the complexation assay as judged by UHPLC and mass analyses.
General procedures for menaquinone complexation assay. To the bead-linked lysocin E analogues in LibraTube was added a solution of menaquinone-4 (2) in MeOH (10 mM, 1.0 mL/1000 beads). The mixture was incubated at room temperature for 12 h. A suspension of the beads in MeOH (200 beads/200 µL) was transferred to a 2.0 mL microtube.
Each bead in the microtube was transferred to each well of a 96-well filtration plate (278011, Thermo Fisher Scientific, 1 bead/well) with the solution of 2 (20 µL/bead) using a micropipette. To each well was added MeOH (400 µL), and the beads was filtered by gravity flow (× 3). The beads in the plate were dried under vacuum for 0.5–1 h. The dried beads were transferred to a 96-well PCR plate (652270, Greiner bio-one, 1 bead/well) with MeOH (20 µL/well) using a micropipette. The solution was removed under a stream of Ar at 40 °C to give the 2-bound bead-linked peptides.
To the 2-bound bead-linked peptides in the plate was added n-BuOH (30 µL/well) at room temperature .
The suspension was incubated at 50 °C for 1 h. The resultant mixture in the plate was centrifuged at 3500 × g at room temperature for 10 sec . The supernatant in each well was transferred to the corresponding well of a black polystyrene flat -bottom 96-well plate (655086, Greiner bio-one). The solution was concentrated under a stream of Ar at 40 °C to give the eluted 2.
To the above eluted 2 in the plate was added n-BuOH (25 µL/well) at room temperature. The plate was vortexed at room temperature for 10 min. To the resultant solution was added a solution of NaBH4 in n-BuOH (1.0 mM, 25 µL/well). The plate was vortexed at room temperature for 10 min. The fluorescence of menahydroquinone (2H, Ex. 250 nm/Em. 430 nm) of each well was measured at room temperature every 3 min (0, 3, and 6 min) on Gemini EM microplate reader (Molecular Devices) . The three fluorescence intensities of each bead were averaged and plotted against the bead number.
Evaluation of menaquinone complexation activities of the selected bead-linked peptides. Bead-linked peptides 30, BLP1, and BLP2 were synthesized according to the above described procedures (loading rate:
0.222 mmol/g). The bead-linked peptides were subjected to the MK complexation assay described above.
The obtained fluorescent intensities of 2H (arbitrary unit) were 1026 ± 64 for 30, 396 ± 27 for BLP1, 72.9 ± 2.0 for BLP2, and 41.6 ± 0.1 for background adsorption (no bead), respectively (Supplementary Figure 3).

Assay [2] in a line: Liposomal membrane disruption assay (carboxyfluorescein LUVs). Type of assay: biochemical. Here is the method: Preparation of LUVs consisting of PC/PG/MK-4 or PC/PG/UQ-10. To a solution of egg yolk phosphatidylcholine (9.48 mg, 12.4 µmol) and egg yolk phosphatidylglycerol (9.66 mg, 12.4 µmol) in CHCl3 (0.208 mL) was added a solution of MK-4 (2) or UQ-10 (3) (0.313 µmol) in CHCl3 (21.8 µL). The solution was concentrated, and dried under vacuum to for m a lipid thin film. The thin film was hydrated and suspended in carboxyfluorescein-containing buffer solution (0.500 mL, 5 mM HEPES, 20 mM carboxyfluorescein , pH 7.5) by vortexing and sonication. After five-times freeze-thaw cycles, the lipid suspension was extruded 19 times through a polycarbonate filter with 0.40 µm of pore siz e in the diameter.
The external carboxyfluorescein -containing buffer was replaced with a carboxyfluorescein -free buffer solution (20 mM HEPES, 1 mM EDTA, pH 7.5) through size exclusion chromatography using disposable PD -10 column. Concentration of egg yolk phosphatidylcholine was determined by using Phospholipid C -Test Wako.
The final concentration of egg yolk phosphatidylcholine was adjusted to 4.0 µM with the carboxyfluorescein -free buffer solution, and the solution was used for membrane disruption ass ay.
Membrane disruption assay. Peptides 1, A1–A22, B1–B5, and C1–C5 were diluted with MeOH/H2O (4/6) to various concentrations as 5-fold serial dilutions. The solution of peptides (2 µL/well) and the carboxyfluorescein-encapsulated LUV suspension (200 µL/well) were mixed in black polystyrene flat-bottom 96-well plates. The final concentration of peptides ranged from 2970 nM to 0.950 nM. The plates were vortexed at room temperature for 30 min, and then fluorescence of carboxyfluorescein (Ex. 490 nm/Em. 517 nm) of each well was measured at room temperature on Gemini EM microplate reader. Trion X-100/H2O (5/95, 2 µL), MeOH/H2O (4/6, 2 µL), and the LUV suspension were mixed in each plate to determine 100% lysis. MeOH/H2O (4/6, 2 µL) and the LUV suspension were mixed in each plate to determine 0% lysis.
The membrane disruption activities of tested peptides (I) were normalized against 100% lysis by Triton X -100 […]
(Imax) and 0% lysis by MeOH/H2O (4/6) (I0) as following, where Ix is the fluorescence intensity (Supplementary Equation 2).
I = 100 × (Ix – I0) / (Imax – I0) (2)
The membrane-disrupting activities were evaluated as half-maximal response (EC50, nM) values by means of three replicates. Sigmoidal curve fittings were performed on R2 with drc package (Supplementary Figs S7–S9).3 Two-parameter logistic model was applied for the fitting.

Where [3] appears, read: 30 min, room temperature, mean ± SD of three independent experiments, read-out: EC50 PC/PG/3.
[4] abbreviates: PC/PG/3 LUVs, 1st experiment, read-out: EC50 PC/PG/3 1st.
Where [5] appears, read: PC/PG/3 LUVs, 2nd experiment, read-out: EC50 PC/PG/3 2nd.
Setting [6] is: PC/PG/3 LUVs, 3rd experiment, read-out: EC50 PC/PG/3 3rd.

Several values for one entry are separate records, joined by “and”; a condition that tells them apart may be missing. Identical values can stand only once. Like-named read-outs stand apart in the source and are kept apart here. Where a SMILES comes first, the peptide text is derived from it. Bridges are numbered along the chain shown (N, C = ends). [ ]: non-standard residue; d: D form. The star is where a group is joined. Hexanoyl(3R-OH,5-Me) = CC(C)C[C@@H](O)CC(=O)*; dNMeF = CN[C@H](Cc1ccccc1)C(=O)O; dOrn = NCCC[C@@H](N)C(=O)O Where only a bound is given, the exact number is not on record here.

Consider `CC(C)C[C@@H](O)CC(=O)N[C@@H]1C(=O)N[C@H](CCCNC(=N)N)C(=O)N[C@@H](C)C(=O)NCC(=O)N(C)[C@H](Cc2ccccc2)C(=O)N[C@@H](CC(C)C)C(=O)N[C@H](CCCNC(=N)N)C(=O)N[C@@H](CCC(=O)O)C(=O)N[C@H](Cc2ccc(O)cc2)C(=O)N[C@H](Cc2c[nH]c3ccccc23)C(=O)N[C@@H](Cc2ccc(O)cc2)C(=O)N[C@@H]([C@@H](C)O)C(=O)O[C@@H]1C` [Peptide A15] ({Hexanoyl(3R-OH,5-Me)}-T[dR]AG[dNMeF]L[dR]E[dY][dW]YT; ester 1-C), for which the “fluorescence intensity of 2H” value in assay [1] turned out to be 1125.25 a.u. Further, the EC50 in assay [2] (setting [3]) amounted to 268 ± 102 nM; in assay [2] (setting [4]), 231 nM; in assay [2] (setting [5]), 383 nM; in assay [2] (setting [6]), 189 nM.

In the case of `CC[C@H](C)[C@@H]1NC(=O)[C@@H](Cc2c[nH]c3ccccc23)NC(=O)[C@@H](Cc2ccc(O)cc2)NC(=O)[C@H](CCC(=O)O)NC(=O)[C@@H](CCCNC(=N)N)NC(=O)[C@H](CC(C)C)NC(=O)[C@@H](Cc2ccccc2)N(C)C(=O)CNC(=O)[C@H](CC(=O)O)NC(=O)[C@@H](CCCNC(=N)N)NC(=O)[C@@H](NC(=O)C[C@H](O)CC(C)C)[C@@H](C)OC(=O)[C@H]([C@@H](C)O)NC1=O` [Peptide A17] ({Hexanoyl(3R-OH,5-Me)}-T[dR]DG[dNMeF]L[dR]E[dY][dW]IT; ester 1-C), the “fluorescence intensity of 2H” value in assay [1] was determined as 1396.02 a.u. Besides, the EC50 in assay [2] (setting [3]), in assay [2] (setting [4]), in assay [2] (setting [5]) and in assay [2] (setting [6]) was > 1500 nM throughout.

Take `CC[C@H](C)[C@@H]1NC(=O)[C@@H](Cc2c[nH]c3ccccc23)NC(=O)[C@@H](C(C)C)NC(=O)[C@H](CCC(=O)O)NC(=O)[C@@H](CCCNC(=N)N)NC(=O)[C@H](CC(C)C)NC(=O)[C@@H](Cc2ccccc2)N(C)C(=O)CNC(=O)[C@H](CCCCN)NC(=O)[C@@H](CCCNC(=N)N)NC(=O)[C@@H](NC(=O)C[C@H](O)CC(C)C)[C@@H](C)OC(=O)[C@H]([C@@H](C)O)NC1=O` [Peptide A3] ({Hexanoyl(3R-OH,5-Me)}-T[dR]KG[dNMeF]L[dR]E[dV][dW]IT; ester 1-C): in assay [1] (listed as KLVI), the “fluorescence intensity of 2H” value is 1439.45 a.u. and 1379.53 a.u. Further, the EC50 was found to be 103 ± 85 nM in assay [2] (setting [3]), 47.4 nM in assay [2] (setting [4]), 201 nM in assay [2] (setting [5]) and 60.9 nM in assay [2] (setting [6]).

Take `CC[C@H](C)[C@@H]1NC(=O)[C@@H](Cc2c[nH]c3ccccc23)NC(=O)[C@@H](CCC(N)=O)NC(=O)[C@H](CCC(=O)O)NC(=O)[C@@H](CCCNC(=N)N)NC(=O)[C@H](CC(C)C)NC(=O)[C@@H](Cc2ccccc2)N(C)C(=O)CNC(=O)[C@H](C)NC(=O)[C@@H](CCCNC(=N)N)NC(=O)[C@@H](NC(=O)C[C@H](O)CC(C)C)[C@@H](C)OC(=O)[C@H]([C@@H](C)O)NC1=O` [Peptide A1] ({Hexanoyl(3R-OH,5-Me)}-T[dR]AG[dNMeF]L[dR]E[dQ][dW]IT; ester 1-C): in assay [1], the “fluorescence intensity of 2H” value is reported as 1237.12 a.u. In addition, the EC50 in assay [2] (setting [3]) amounted to 92.7 ± 31.3 nM; in assay [2] (setting [4]), 128 nM; in assay [2] (setting [5]), 82.1 nM; in assay [2] (setting [6]), 68.1 nM.

Consider `CC[C@H](C)[C@@H]1NC(=O)[C@@H](Cc2c[nH]c3ccccc23)NC(=O)[C@@H](CCCN)NC(=O)[C@H](CCC(=O)O)NC(=O)[C@@H](CCCNC(=N)N)NC(=O)[C@H](CC(C)C)NC(=O)[C@@H](Cc2ccccc2)N(C)C(=O)CNC(=O)[C@H](Cc2ccc(O)cc2)NC(=O)[C@@H](CCCNC(=N)N)NC(=O)[C@@H](NC(=O)C[C@H](O)CC(C)C)[C@@H](C)OC(=O)[C@H]([C@@H](C)O)NC1=O` [Peptide A7] ({Hexanoyl(3R-OH,5-Me)}-T[dR]YG[dNMeF]L[dR]E[dOrn][dW]IT; ester 1-C), for which the “fluorescence intensity of 2H” value in assay [1] (listed as YLOI) was 1035.66 a.u. and 1123.94 a.u. Besides, the EC50 turned out to be 441 ± 136 nM in assay [2] (setting [3]), 334 nM in assay [2] (setting [4]), 595 nM in assay [2] (setting [5]) and 395 nM in assay [2] (setting [6]).

Regarding `CC[C@H](C)[C@@H]1NC(=O)[C@@H](Cc2c[nH]c3ccccc23)NC(=O)[C@@H](CCCN)NC(=O)[C@H](CCC(=O)O)NC(=O)[C@@H](CCCNC(=N)N)NC(=O)[C@H](CC(C)C)NC(=O)[C@@H](Cc2ccccc2)N(C)C(=O)CNC(=O)[C@H](CC(=O)O)NC(=O)[C@@H](CCCNC(=N)N)NC(=O)[C@@H](NC(=O)C[C@H](O)CC(C)C)[C@@H](C)OC(=O)[C@H]([C@@H](C)O)NC1=O` [Peptide A16] ({Hexanoyl(3R-OH,5-Me)}-T[dR]DG[dNMeF]L[dR]E[dOrn][dW]IT; ester 1-C), the “fluorescence intensity of 2H” value in assay [1] is reported as 1414.45 a.u. Also, the EC50 in assay [2] (setting [3]) was 832 ± 243 nM; in assay [2] (setting [4]) it was 892 nM; in assay [2] (setting [5]), 1040 nM; in assay [2] (setting [6]), 565 nM.

On to `CC[C@H](C)[C@@H]1NC(=O)[C@@H](Cc2c[nH]c3ccccc23)NC(=O)[C@@H](CCCN)NC(=O)[C@H](CCC(=O)O)NC(=O)[C@@H](CCCNC(=N)N)NC(=O)[C@H](CC(C)C)NC(=O)[C@@H](Cc2ccccc2)N(C)C(=O)CNC(=O)[C@H](CC(N)=O)NC(=O)[C@@H](CCCNC(=N)N)NC(=O)[C@@H](NC(=O)C[C@H](O)CC(C)C)[C@@H](C)OC(=O)[C@H]([C@@H](C)O)NC1=O` [Peptide A14] ({Hexanoyl(3R-OH,5-Me)}-T[dR]NG[dNMeF]L[dR]E[dOrn][dW]IT; ester 1-C), for which, in assay [1], the “fluorescence intensity of 2H” value stood at 1470.92 a.u. In addition, the EC50 in assay [2] (setting [4]) is 999 nM; in assay [2] (setting [5]), > 1500 nM; in assay [2] (setting [6]) it was 867 nM.
